# From ChEMBL document CHEMBL1201862, “PubChem BioAssay data set” (2004)
# Calls of active or inactive are those of the source.
# Legend:
# [1] = target: T1, Corticotropin-releasing factor receptor 2/Corticotropin-releasing factor-binding protein (Homo sapiens, UniProt P24387+Q13324); assay: Dose Response confirmation of uHTS hits for small molecule antagonists of the CRF-binding protein and CRF-R2 receptor complex.; type: functional; conditions: read-out: IC50_Mean
# T1 sequence (Q13324 whole entry): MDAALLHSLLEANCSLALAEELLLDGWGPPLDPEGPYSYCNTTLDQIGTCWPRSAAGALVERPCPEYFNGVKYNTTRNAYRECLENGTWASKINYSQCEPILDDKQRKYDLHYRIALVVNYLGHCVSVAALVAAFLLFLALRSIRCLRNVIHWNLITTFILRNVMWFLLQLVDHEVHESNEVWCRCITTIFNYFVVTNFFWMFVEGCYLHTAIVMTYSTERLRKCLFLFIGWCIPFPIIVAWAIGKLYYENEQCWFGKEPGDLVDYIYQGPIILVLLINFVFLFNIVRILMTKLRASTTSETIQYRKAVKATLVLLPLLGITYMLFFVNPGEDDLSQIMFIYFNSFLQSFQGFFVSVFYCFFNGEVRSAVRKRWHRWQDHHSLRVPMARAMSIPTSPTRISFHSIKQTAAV
# T1 sequence (P24387 whole entry): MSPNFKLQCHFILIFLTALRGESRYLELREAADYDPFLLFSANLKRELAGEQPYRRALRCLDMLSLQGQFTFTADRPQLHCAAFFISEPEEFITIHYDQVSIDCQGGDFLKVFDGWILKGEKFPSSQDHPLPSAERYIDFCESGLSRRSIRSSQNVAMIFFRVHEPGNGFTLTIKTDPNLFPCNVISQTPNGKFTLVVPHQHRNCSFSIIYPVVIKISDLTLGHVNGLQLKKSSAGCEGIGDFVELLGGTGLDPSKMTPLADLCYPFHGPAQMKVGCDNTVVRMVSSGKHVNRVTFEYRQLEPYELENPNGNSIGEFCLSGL
# [2] = target: T1, Corticotropin-releasing factor receptor 2/Corticotropin-releasing factor-binding protein; assay: activators of CRF receptor 2 with binding protein – uHTS hits, confirmation (AID 602473); type: functional; conditions: read-out: EC50_Mean
# [3] = target: T2, Polyadenylate-binding protein 1 (Homo sapiens, UniProt P11940); assay: PABP1 MLLE–PAM2 binding inhibitor potency, dose response, biochemical, fluorescence polarization, FITC-PAM2 peptide (AID 602259); type: functional; conditions: read-out: IC50_Mean
# [4] = target: T2, Polyadenylate-binding protein 1; assay: PABP1 MLLE–PAM2 interaction inhibitors, dose response, miRNA deadenylation inhibitor project, biochemical, fluorescence polarization, Cy5-PAM2 peptide, secondary (AID 602260); type: functional; conditions: read-out: IC50_Mean
# P388 = assay: cells; type: functional; conditions: Mus musculus
# SN12K1 = assay: cells; type: functional; conditions: Homo sapiens
# P388/ADR = assay: cells; type: functional; conditions: Mus musculus
# Cytochrome P450 2D6 = Cytochrome P450 2D6 (Homo sapiens, UniProt P10635);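 note: CYP2D6 member of a cytochrome P450 panel assay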
# Cytochrome P450 2C19 = Cytochrome P450 2C19 (Homo sapiens, UniProt P33261); assay: Cytochrome panel assay with activity outcomes. Panel member name: p450-cyp2c19 Compounds with AC50 equal or less than 10 uM are considered active; type: functional; conditions: read-out: AC50
# Cytochrome P450 2C9 = Cytochrome P450 2C9 (Homo sapiens, UniProt P11712)
# [5] = inhibitors of clade B AD8 Env fusion, dose response, cell-based, cherry-pick (AID 652062); type: functional;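 note: luciferase signal from cell-cell fusion driven by HIV-1 clade B AD8 Env; potency is for inhibitors of fusion seen as a drop in luminescence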
# H4 = assay: Luminescence Cell-Based Dose Response HTS to Identify Activators of 5'UTR Stem-Loop Driven Prion Protein mRNA Translation in H4 Neuroglioblastoma Cells. [Related pubchem assays: 1829 (Project Summary), 1814 (Primary HTS)]; type: functional; conditions: Homo sapiens
# [6] = Luminescence Cell-Based Dose Response HTS to Identify Activators of Luciferase Translation or Activity in H4 […] Cells. [Related pubchem assays: 1829 (Project Summary), 1814 (Primary HTS)]; type: functional
# cells [7] = type: functional, cell-based
# cells [8] = type: functional
# INS1 = assay: beta cell apoptosis inhibitors, cytokine rescue, dose response, luminescence, retest (AID 449756); type: functional, cell-based; conditions: Rattus norvegicus;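 note: cell death triggered by IL-1 beta plus TNF-alpha plus IFN-gamma mixture; protective hits raise ATP signal compared with cytokine alone wells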
# [9] = Luminescence Cell-Based Dose Retest to Confirm Inhibitors of Cancer Stem Cells. [Related pubchem assays (depositor defined):AID2717, AID2721]; type: functional; conditions: Homo sapiens
# Cytochrome P450 3A4 = Cytochrome P450 3A4 (Homo sapiens, UniProt P08684);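 note: CYP3A4 tested as one member of a cytochrome P450 panel screen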
# Cytochrome P450 3A4, sequence (P08684 whole entry): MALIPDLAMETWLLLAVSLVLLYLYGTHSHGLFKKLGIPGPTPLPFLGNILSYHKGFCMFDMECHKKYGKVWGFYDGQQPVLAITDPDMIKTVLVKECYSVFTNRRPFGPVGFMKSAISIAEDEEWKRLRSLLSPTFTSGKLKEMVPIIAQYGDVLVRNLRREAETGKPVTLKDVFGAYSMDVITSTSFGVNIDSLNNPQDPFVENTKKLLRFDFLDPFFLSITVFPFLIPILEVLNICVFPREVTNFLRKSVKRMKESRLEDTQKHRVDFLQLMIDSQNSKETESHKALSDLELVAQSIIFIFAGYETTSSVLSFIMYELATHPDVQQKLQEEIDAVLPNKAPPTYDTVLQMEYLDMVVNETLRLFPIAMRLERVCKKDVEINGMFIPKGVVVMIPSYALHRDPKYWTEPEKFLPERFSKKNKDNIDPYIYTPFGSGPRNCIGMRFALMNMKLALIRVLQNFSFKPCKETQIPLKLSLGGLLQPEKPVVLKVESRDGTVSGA
# Cytochrome P450 2C9, sequence (P11712 whole entry, the tested form may be a part): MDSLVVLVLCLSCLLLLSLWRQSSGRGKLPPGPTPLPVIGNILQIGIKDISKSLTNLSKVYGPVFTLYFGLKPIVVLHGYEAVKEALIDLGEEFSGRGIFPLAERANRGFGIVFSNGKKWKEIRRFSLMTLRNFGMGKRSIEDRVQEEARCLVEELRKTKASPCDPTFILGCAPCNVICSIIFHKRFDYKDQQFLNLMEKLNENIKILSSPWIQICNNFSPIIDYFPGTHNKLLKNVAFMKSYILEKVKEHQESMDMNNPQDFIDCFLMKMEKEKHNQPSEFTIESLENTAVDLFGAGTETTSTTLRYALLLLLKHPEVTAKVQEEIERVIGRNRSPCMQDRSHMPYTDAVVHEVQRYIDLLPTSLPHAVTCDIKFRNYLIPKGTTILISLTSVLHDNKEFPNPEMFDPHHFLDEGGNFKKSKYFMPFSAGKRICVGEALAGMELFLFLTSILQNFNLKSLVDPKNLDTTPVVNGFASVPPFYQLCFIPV
# T2 sequence (P11940 whole entry): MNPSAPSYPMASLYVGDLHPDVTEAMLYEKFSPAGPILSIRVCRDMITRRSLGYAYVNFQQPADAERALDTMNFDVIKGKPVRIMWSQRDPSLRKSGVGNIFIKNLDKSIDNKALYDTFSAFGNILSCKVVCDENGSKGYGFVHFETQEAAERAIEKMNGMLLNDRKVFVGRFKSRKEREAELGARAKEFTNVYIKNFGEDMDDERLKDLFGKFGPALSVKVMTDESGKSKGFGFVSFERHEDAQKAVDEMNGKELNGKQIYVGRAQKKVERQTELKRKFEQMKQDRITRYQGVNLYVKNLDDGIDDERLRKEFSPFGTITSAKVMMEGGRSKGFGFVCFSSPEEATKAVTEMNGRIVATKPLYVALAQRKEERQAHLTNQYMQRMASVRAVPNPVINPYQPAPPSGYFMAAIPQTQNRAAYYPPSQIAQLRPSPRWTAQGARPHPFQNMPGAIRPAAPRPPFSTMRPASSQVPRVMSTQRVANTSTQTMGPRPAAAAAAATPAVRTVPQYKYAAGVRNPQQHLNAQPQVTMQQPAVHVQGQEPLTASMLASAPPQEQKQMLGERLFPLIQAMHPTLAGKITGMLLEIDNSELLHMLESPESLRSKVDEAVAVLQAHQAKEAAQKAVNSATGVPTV
# Cytochrome P450 2C19, sequence (P33261 whole entry): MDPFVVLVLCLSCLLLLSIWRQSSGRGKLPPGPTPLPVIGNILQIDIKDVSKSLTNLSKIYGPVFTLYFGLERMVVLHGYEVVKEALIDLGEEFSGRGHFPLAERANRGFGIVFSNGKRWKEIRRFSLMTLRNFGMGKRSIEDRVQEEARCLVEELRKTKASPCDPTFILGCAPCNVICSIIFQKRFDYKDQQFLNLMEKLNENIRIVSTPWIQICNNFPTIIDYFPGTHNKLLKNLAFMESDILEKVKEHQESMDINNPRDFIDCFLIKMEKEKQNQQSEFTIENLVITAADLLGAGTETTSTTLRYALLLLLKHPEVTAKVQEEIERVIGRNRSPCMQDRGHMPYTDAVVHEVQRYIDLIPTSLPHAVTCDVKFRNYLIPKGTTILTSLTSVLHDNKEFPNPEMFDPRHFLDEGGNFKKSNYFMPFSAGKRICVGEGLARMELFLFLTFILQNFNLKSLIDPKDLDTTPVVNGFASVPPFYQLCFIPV
# Cytochrome P450 2D6, sequence (P10635 whole entry): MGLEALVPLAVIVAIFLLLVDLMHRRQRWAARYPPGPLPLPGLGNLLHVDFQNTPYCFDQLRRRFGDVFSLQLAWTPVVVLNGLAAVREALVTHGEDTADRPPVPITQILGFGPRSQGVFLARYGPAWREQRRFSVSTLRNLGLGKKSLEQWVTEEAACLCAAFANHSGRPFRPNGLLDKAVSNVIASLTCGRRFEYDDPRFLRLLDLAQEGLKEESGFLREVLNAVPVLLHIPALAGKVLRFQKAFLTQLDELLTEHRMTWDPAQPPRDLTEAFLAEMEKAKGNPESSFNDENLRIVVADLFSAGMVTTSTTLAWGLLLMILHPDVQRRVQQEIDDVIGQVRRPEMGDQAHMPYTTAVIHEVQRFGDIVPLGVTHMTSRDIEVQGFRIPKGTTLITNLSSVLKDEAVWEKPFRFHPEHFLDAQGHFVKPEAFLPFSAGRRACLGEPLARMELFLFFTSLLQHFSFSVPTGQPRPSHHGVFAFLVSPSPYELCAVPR
structure (smiles),measurement,setting,value
Cc1ccc(C(=O)N(Cc2sccc2C)C2CCS(=O)(=O)C2)cc1 (stereo not drawn),IC50,[1],> 47.1 µM (inactive)
same,EC50,[2],> 53 µM (inactive)
CC(=O)Nc1ccc(SC[C@H](Cc2ccccc2)N2CC[C@@H](O)CCC2=O)cc1,IC50,[3],> 66 µM (inactive)
same,IC50,[4],> 66 µM (inactive)
CC(NCCS(=O)(=O)O)C(=O)O (stereo not drawn),GI50,P388,> 100 µM (inactive)
same,GI50,SN12K1,> 100 µM (inactive)
same,GI50,P388/ADR,> 100 µM (inactive)
O=C1C2=C(C3=NCCc4c[nH]c1c43)c1c(Br)cc(Br)cc1CCN2,GI50,P388,2.13 µM (inactive)
same,GI50,SN12K1,3.65 µM (inactive)
same,GI50,P388/ADR,2.18 µM (inactive)
CN(C)CCNC(=O)c1cccc2[nH]c(-c3ccc(Cl)cc3)nc12,GI50,P388,2.48 µM (inactive)
same,GI50,SN12K1,3.48 µM (inactive)
same,GI50,P388/ADR,3.2 µM (inactive)
Nc1ncc(CN2CCCC2)c(-c2ccccc2O)n1,GI50,P388,> 100 µM (inactive)
same,GI50,SN12K1,> 100 µM (inactive)
O=C(NCCO)c1ccc(Cl)cc1,AC50,Cytochrome P450 2D6,2 µM (inconclusive)
same,AC50,Cytochrome P450 2C19,2 µM (inconclusive)
same,AC50,Cytochrome P450 2C9,5.01 µM (inconclusive)
O=C(CCCc1ccccc1)Nc1nncs1,IC50,[1],> 47.1 µM (inactive)
same,EC50,[2],> 53 µM (inactive)
CC1(Cc2ccc3c(c2)OCO3)NC(=O)NC1=O (stereo not drawn),IC50,[1],> 47.1 µM (inactive)
same,EC50,[2],> 53 µM (inactive)
COc1ccc(C2C(C)C(=O)C(C)C(c3ccc(OC)cc3)N2N=O)cc1 (stereo not drawn),GI50,SN12K1,55.2 µM (inactive)
same,GI50,P388/ADR,> 100 µM (inactive)
Cc1ccc(S(=O)(=O)N(C)C[C@@H]2Oc3ccc(NS(=O)(=O)c4ccc(Cl)cc4)cc3C(=O)N([C@@H](C)CO)C[C@H]2C)cc1,AC50,[5],3.2 µM (active)
Cc1cccnc1N=C(S)NCCc1ccccc1,EC50,H4,12.9 µM (inconclusive)
same,EC50,[6],21.7 µM (active)
Cc1cc([N+](=O)[O-])c2ccccc2c1NS(=O)(=O)c1ccccc1,IC50,[1],> 47.1 µM (inactive)
same,EC50,[2],> 53 µM (inactive)
Cc1cccc2nc3c(C(=O)NCCN(C)C)cccc3cc12,GI50,P388,0.292 µM (active)
same,GI50,SN12K1,0.711 µM (active)
same,GI50,P388/ADR,0.474 µM (active)
CCc1nc(N2CCN(C(=O)c3ccco3)CC2)c2c3c(sc2n1)CCCC3,EC50,cells [7],> 350 µM (not active)
O=C(NCCCCCCNC(=O)N1CCCCCC1)N1CCCCCC1,IC50,[1],> 47.1 µM (inactive)
same,EC50,[2],> 53 µM (inactive)
Cc1cc(C)n(CC(=O)NNC(=O)COc2ccc(Br)cc2F)n1,IC50,[3],> 66 µM (inactive)
same,IC50,[4],> 66 µM (inactive)
NS(=O)(=O)c1ccc(/N=N\c2cnc(O)c(O)c2)cc1,AC50,Cytochrome P450 2D6,5.01 µM (inconclusive)
same,AC50,Cytochrome P450 2C19,6.31 µM (inconclusive)
same,AC50,Cytochrome P450 2C9,6.31 µM (inconclusive)
CC(C)NC[C@@H](O)COc1ccccc1-n1cccc1,AC50,Cytochrome P450 2D6,31.6 µM (inconclusive)
CCc1c(C)c2ccc(OCC(=O)OC)cc2oc1=O,IC50,cells [8],16.6 µM (active)
CO[C@H]1C[C@@H]2CC[C@@H](C)[C@@](O)(O2)C(=O)C(=O)N2CCCC[C@H]2C(=O)O[C@H]([C@H](C)C[C@@H]2CC[C@@H](O)[C@H](OC)C2)CC(=O)[C@H](C)C=C(C)[C@@H](O)[C@@H](OC)C(=O)[C@H](C)C[C@H](C)/C=C/C=C/C=C1C,GI50,P388,0.1 µM (active)
same,GI50,SN12K1,0.1 µM (active)
COc1cccc2c1C(=O)c1c(O)c3c(c(O)c1C2=O)C[C@@](O)(C(C)O)C[C@@H]3OC1CC(N)C(O)C(C)O1 (stereo partly drawn),GI50,P388,0.191 µM (active)
same,GI50,SN12K1,0.0891 µM (active)
same,GI50,P388/ADR,36.6 µM (inactive)
COc1cccc(CN2CCN(c3cccc(C(F)(F)F)c3)CC2)c1OC,IC50,[1],> 47.1 µM (inactive)
same,EC50,[2],> 53 µM (inactive)
COc1ccc(-c2noc(-c3cc4ccccc4oc3=O)n2)cc1,IC50,cells [8],5.25 µM (active)
COc1ccccc1-c1nc(NCc2cccnc2)c2ccccc2n1,AC50,Cytochrome P450 2D6,20 µM (inconclusive)
same,AC50,Cytochrome P450 2C19,39.8 µM (inconclusive)
CSc1ccccc1NC(=O)c1cc(CC(C)C)on1,IC50,[1],> 47.1 µM (inactive)
same,EC50,[2],> 53 µM (inactive)
Cc1c2cc[n+](C)c(C)c2cc2c1[nH]c1ccccc12,GI50,P388,4.5 µM (inactive)
same,GI50,SN12K1,2.21 µM (inactive)
same,GI50,P388/ADR,> 100 µM (inactive)
COc1cc(C2(c3ncc[nH]3)SSSCC2O)ccc1O (stereo not drawn),GI50,P388,18.7 µM (inactive)
same,GI50,SN12K1,30.5 µM (inactive)
same,GI50,P388/ADR,17.8 µM (inactive)
[H]/N=C(/N)N/C(=N/[H])NCCc1ccccc1 [PHENFORMIN],AC50,Cytochrome P450 2D6,10 µM (inconclusive)
O=C(Nc1ccccc1)c1cc2n(n1)C(C(F)(F)F)CC(C1CC1)N2 (stereo not drawn),EC50,H4,> 120 µM (not active)
same,EC50,[6],5.46 µM (active)
COc1ccc(Cl)cc1C(=O)NNC(=O)COC(=O)c1cccs1,IC50,[1],> 47.1 µM (inactive)
same,EC50,[2],> 53 µM (inactive)
O=C(COc1ccc(S(=O)(=O)NC2CCCCC2)cc1Cl)NCc1cccnc1,IC50,[1],> 47.1 µM (inactive)
same,EC50,[2],> 53 µM (inactive)
O=C(NC(=S)Nc1ccccc1Br)c1ccco1,IC50,[3],> 66 µM (inactive)
same,IC50,[4],> 66 µM (inactive)
CO/C=C1\OC(=O)C=C1OC,GI50,P388,> 100 µM (inactive)
same,GI50,SN12K1,> 100 µM (inactive)
same,GI50,P388/ADR,> 100 µM (inactive)
CN(CC(=O)Nc1ccc(C#N)cc1)Cc1ccc(Cl)c(Cl)c1,IC50,cells [8],42.3 µM (active)
CCCc1cc(=O)[nH]c(SCC(=O)Nc2nonc2N)n1,IC50,[3],> 66 µM (inactive)
same,IC50,[4],> 66 µM (inactive)
CC(=O)c1cccc(NS(=O)(=O)c2ccc(N/C=C\C(=O)c3ccc(F)cc3)cc2)c1,AC50,Cytochrome P450 2D6,8.91 µM (inconclusive)
same,AC50,INS1,3.74 µM (active)
Cc1c2cc[n+](Cc3ccc(I)cc3)cc2c(C)c2c1[nH]c1ccccc12,GI50,P388,0.1 µM (active)
same,GI50,SN12K1,0.208 µM (active)
same,GI50,P388/ADR,17.9 µM (inactive)
CCC(C)(C)c1ccc(OCC(=O)Nc2ccncc2)cc1,IC50,cells [8],8.95 µM (active)
COc1ccccc1NC(=O)c1cnc(SC)nc1,IC50,cells [8],49.4 µM (active)
Oc1c(N=Nc2nn[nH]n2)ccc2ccccc12,IC50,[3],38.9 µM (inactive)
same,IC50,[4],> 66 µM (inactive)
CCCC1(C)Nc2ccccc2-c2nc3ccccc3n21 (stereo not drawn),AC50,Cytochrome P450 2D6,22.4 µM (inconclusive)
C/C(NC(=O)c1cccc(F)c1)=C1/C(=O)C[C@@H]2[C@H]1C2(C)C,EC50,H4,17.8 µM (active)
same,EC50,[6],29.7 µM (active)
same,AC50,[9],1.24 µM (active)
CC(C)C1NC(=O)CC(c2ccccc2)N(N=O)C1c1ccccc1 (stereo not drawn),GI50,P388,70.1 µM (inactive)
same,GI50,SN12K1,> 89.9 µM (inactive)
same,GI50,P388/ADR,44.5 µM (inactive)
O=C(O)CNS(=O)(=O)c1ccc(NC(=O)Nc2ccccc2)cc1,GI50,P388,> 100 µM (inactive)
same,GI50,SN12K1,> 100 µM (inactive)
same,GI50,P388/ADR,> 100 µM (inactive)
CC(C)N(C(=O)[C@H]1C[C@H](CC(=O)NCc2ccco2)C(=O)N2CCc3c([nH]c4cc(CCC(=O)N(C)C)ccc34)[C@]12C)C(C)C,IC50,[1],> 47.1 µM (inactive)
same,EC50,[2],> 53 µM (inactive)
Cc1cc(=O)n2nc(N3CCC(C(=O)Nc4c(F)c(F)c(F)c(F)c4F)CC3)sc2n1,IC50,[1],> 47.1 µM (inactive)
same,EC50,[2],> 53 µM (inactive)
CCNC(=O)COC(=O)c1ccc(-c2nc3ccccc3s2)s1,IC50,cells [8],5.44 µM (active)
N#Cc1ccc(CN2CCC3(CC2)CCN(C(=O)c2cc(C(F)(F)F)cc(C(F)(F)F)c2)CC3)cc1,AC50,Cytochrome P450 2D6,39.8 µM (inconclusive)
COc1ccc(-n2c(=O)c(-c3cn(C)c4ccccc34)nc3cnc(N4CCNCC4)nc32)cc1,AC50,Cytochrome P450 2D6,20 µM (inconclusive)
same,AC50,Cytochrome P450 3A4,20 µM (inconclusive)
same,AC50,Cytochrome P450 2C9,39.8 µM (inconclusive)
